Columns and labels:
PDE type I = test: PDE inhibiting activity, type I; type: biochemical, dog; conditions: PDE purified from canine aorta; 1 µM substrate cGMP or cAMP; read-out: Inhibition Activity IC50 (µM) Type I
Procedure: On the basis of the method of Lugnier et al. (Biochem. Pharmacol., 35, 1743-1751, 1986), PDE was purified from the aorta in a dog. The canine aorta was minced and homogenized with a Waring Blender and a glass homogenizer in six volumes of a Tris-HCl buffer solution (pH 7.5, 20 mM) containing 2 mM magnesium acetate, 5 mM ethylenediaminetetraacetic acid (EDTA), 100 µg/mL of phenylmethylsulforyl fluoride and 15 mM 2-mercaptoethanol (2-ME), and centrifuged at 1200 x g for 30 min. The supernatant was separated and salted out with ammonium sulfate which was added to 45% saturation. The resulting precipitated fraction was resuspended in a Tris-HCl buffer solution (pH 7.5, 20 mM) containing 2 mM magnesium acetate and 1 mM 2-ME, dialyzed overnight and applied to a DEAE-trisacryl column (DEAE […] M:IBF). By elution with a sodium chloride gradient (0 - 0.4 M), PDE types V and III were separated from the other isozymes. The supernatant fraction of 45% saturated ammonium sulfate was further mixed with ammonium sulfate to 65% saturation and salted out. The resulting precipitated fraction was similarly applied to the DEAE-trisacryl column and eluted by a sodium chloride gradient (0 - 0.4 M) so as to separate PDE type I.
The thus obtained PDE types V, III and I were measured for their activity in accordance with the method of Thompson et al. (Adv. Cyclic Nucleotide Res., 10, 69-72, 1979) and the method of Wells et al. (Biochim. Biophys. Acta, 384, 430-443, 1975). Specifically, a purified PDE sample was added to 50 mM Tris-HCl buffer solution (pH 7.5) containing 1 µM of substrate cGMP or cAMP (containing tritium-labelled cGMP or cAMP), 1 mM EGTA and 2 mM magnesium acetate. For PDE activity measurement, enzymatically produced 5' GMP or 5' AMP was further hydrolyzed into guanosine or adenosine with snake venom and separated from the substrate by means of an ion-exchange resin (Dowex 1-X2), followed by measuring with a scintillation counter. The activity of each test compound was determined as a percentage of the PDE activity measured when it was added as a dimethyl sulfoxide solution (DMSO) and its IC50 (50% inhibition concentration) was calculated by the probit method. The final concentration of DMSO was adjusted to be no more than 2% in consideration of the effect on PDE activity.

PDE type V = target: T1, PDE type V (Canis lupus familiaris, UniProt O77746); test: PDE inhibiting activity, type V; type: biochemical, dog; conditions: PDE purified from canine aorta; 1 µM substrate cGMP or cAMP; read-out: Inhibition Activity IC50 (µM) Type V
T1 construct: By elution with a sodium chloride gradient (0 - 0.4 M), PDE types V and III were separated from the other isozymes; from tissue; host or cells: canine aorta
Procedure: The canine aorta was minced and homogenized with a Waring Blender and a glass homogenizer in six volumes of a Tris-HCl buffer solution (pH 7.5, 20 mM) containing 2 mM magnesium acetate, 5 mM ethylenediaminetetraacetic acid (EDTA), 100 µg/mL of phenylmethylsulforyl fluoride and 15 mM 2-mercaptoethanol (2-ME), and centrifuged at 1200 x g for 30 min. […] By elution with a sodium chloride gradient (0 - 0.4 M), PDE types V and III were separated from the other isozymes. […] The resulting precipitated fraction was similarly applied to the DEAE-trisacryl column and eluted by a sodium chloride gradient (0 - 0.4 M) so as to separate PDE type I.
Specifically, a purified PDE sample was added to 50 mM Tris-HCl buffer solution (pH 7.5) containing 1 µM of substrate cGMP or cAMP (containing tritium-labelled cGMP or cAMP), 1 mM EGTA and 2 mM magnesium acetate. For PDE activity measurement, enzymatically produced 5' GMP or 5' AMP was further hydrolyzed into guanosine or adenosine with snake venom and separated from the substrate by means of an ion-exchange resin (Dowex 1-X2), followed by measuring with a scintillation counter. […] The final concentration of DMSO was adjusted to be no more than 2% in consideration of the effect on PDE activity.

| SMILES | IC50 (PDE type I) [µM] | IC50 (PDE type V) [µM] |
| --- | --- | --- |
| O=c1c(Cc2cccnc2)cn2c3ccc(Br)cc3c3cc(O)cc1c32 [Example 2, 10-bromo-2-hydroxy-5-(3-pyridylmethyl)-4H-pyrido[3,2,1-jk]carbazol-4-one] | > 30 | 0.1 |
| CC(C)OC(=O)COc1cc2c(=O)c(Cc3cccnc3)cn3c4ccc(Br)cc4c(c1)c23 [Example 4, 10-bromo-2-i-propoxycarbonylmethyloxy-5-(3-pyridylmethyl)-4H-pyrido[3,2,1-jk]carbazol-4-one] | > 30 | 0.0038 |
| CCOC(=O)COc1cc2c(=O)c(Cc3cccnc3)cn3c4ccc(Br)cc4c(c1)c23 [Example 5, 10-bromo-2-ethoxycarbonylmethyloxy-5-(3-pyridylmethyl)-4H-pyrido[3,2,1-jk]carbazol-4-one] | > 30 | 0.0055 |
| O=c1c(Cc2cccnc2)cn2c3ccc(Br)cc3c3cc(OCc4cccnc4)cc1c32 [Example 10, 10-bromo-5-(3-pyridylmethyl)-2-(3-pyridylmethyloxy)-4H-pyrido[3,2,1-jk]carbazol-4-one] | > 30 | 0.059 |
| O=c1c(Cc2cccnc2)cn2c3ccc(Br)cc3c3cc(OCc4ccccc4)cc1c32 [Example 11, 2-benzyloxy-10-bromo-5-(3-pyridylmethyl)-4H-pyrido[3,2,1-jk]carbazol-4-one] | > 30 | 0.11 |
| COc1cc2c(=O)c(C)cn3c4ccc(Br)cc4c(c1)c23 [Example 13, 10-bromo-2-methoxy-5-methyl-4H-pyrido[3,2,1-jk]carbazol-4-one] | > 100 | 0.1 |
| Cc1cn2c3ccc(Br)cc3c3cc(O)cc(c1=O)c32 [Example 14, 10-bromo-2-hydroxy-5-methyl-4H-pyrido[3,2,1-jk]carbazol-4-one] | > 300 | 0.1 |
| Cc1cn2c3ccc(Br)cc3c3cc(OCC(=O)OC(C)C)cc(c1=O)c32 [Example 16] | > 30 | 0.0017 |
| CCOC(=O)COc1cc2c(=O)c(C)cn3c4ccc(Br)cc4c(c1)c23 [Example 17, 10-bromo-2-ethoxycarbonylmethyloxy-5-methyl-4H-pyrido[3,2,1-jk]carbazol-4-one] | > 30 | 0.0035 |
| CCCC(=O)COc1cc2c(=O)c(C)cn3c4ccc(Br)cc4c(c1)c23 [Example 18, 10-bromo-2-(2-oxopentyloxy)-5-methyl-4H-pyrido[3,2,1-jk]carbazol-4-one] | > 30 | 0.015 |
| COc1cc2c(=O)ccn3c4ccc(Br)cc4c(c1)c23 [Example 19, 10-bromo-2-methoxy-4H-pyrido[3,2,1-jk]carbazol-4-one] | > 10 | 0.05 |
| O=c1ccn2c3ccc(Br)cc3c3cc(O)cc1c32 [Example 20, 10-bromo-2-hydroxy-4H-pyrido[3,2,1-jk]carbazol-4-one] | > 100 | 0.03 |
| CC(C)(C)OC(=O)COc1cc2c(=O)ccn3c4ccc(Br)cc4c(c1)c23 [Example 21, 10-bromo-2-t-butoxycarbonylmethyloxy-4H-pyrido[3,2,1-jk]carbazol-4-one] | > 30 | 0.0009 |
| CC(C)OC(=O)COc1cc2c(=O)ccn3c4ccc(Br)cc4c(c1)c23 [Example 22, 10-bromo-2-i-propoxycarbonylmethyloxy-4H-pyrido[3,2,1-jk]carbazol-4-one] | > 30 | 0.0008 |
| CCOC(=O)COc1cc2c(=O)ccn3c4ccc(Br)cc4c(c1)c23 [Example 23, 10-bromo-2-ethoxycarbonylmethyloxy-4H-pyrido[3,2,1-jk]carbazol-4-one] | > 30 | 0.002 |
| O=C(O)COc1cc2c(=O)ccn3c4ccc(Br)cc4c(c1)c23 [Example 24, 10-bromo-2-carboxymethyloxy-4H-pyrido[3,2,1-jk]carbazol-4-one] | > 30 | 0.19 |

| SMILES | IC50 (PDE type I) [µM] | IC50 (PDE type V) [µM] |
| --- | --- | --- |
| O=c1ccn2c3ccc(Br)cc3c3cc(OCc4cccnc4)cc1c32 [Example 25, 10-bromo-2-(3-pyridylmethyloxy)-4H-pyrido[3,2,1-jk]carbazol-4-one] | > 100 | 0.011 |
| O=c1ccn2c3ccc(Br)cc3c3cc(OCc4ccccc4)cc1c32 [Example 26, 2-benzyloxy-10-bromo-4H-pyrido[3,2,1-jk]carbazol-4-one] | > 30 | 0.01 |
| O=c1ccn2c3ccc(Br)cc3c3cc(OCc4ncon4)cc1c32 [Example 27, 10-bromo-2-(1,2,4-oxadiazol-3-yl)methyloxy-4H-pyrido[3,2,1-jk]carbazol-4-one] | > 30 | 0.021 |
| CC(=O)Oc1cc2c(=O)ccn3c4ccc(Br)cc4c(c1)c23 [Example 28, 2-acetoxy-10-bromo-4H-pyrido[3,2,1-jk]carbazol-4-one] | > 100 | 0.1 |
| CCCC(=O)COc1cc2c(=O)ccn3c4ccc(Br)cc4c(c1)c23 [Example 29, 10-bromo-2-(2-oxopentyloxy)-4H-pyrido[3,2,1-jk]carbazol-4-one] | > 30 | 0.0047 |
| COc1cc2c(=O)c(Cc3cccnc3)cn3c4cc(Br)ccc4c(c1)c23 [Example 30, 9-bromo-2-methoxy-5-(3-pyridylmethyl)-4H-pyrido[3,2,1-jk]carbazol-4-one] | > 30 | 0.0047 |
| CC(C)(C)OC(=O)COc1cc2c(=O)c(Cc3cccnc3)cn3c4cc(Br)ccc4c(c1)c23 [Example 32, 9-bromo-2-t-butoxycarbonylmethyloxy-5-(3-pyridylmethyl)-4H-pyrido[3,2,1-jk]carbazol-4-one] | > 30 | 0.091 |
| O=C(O)COc1cc2c(=O)c(Cc3cccnc3)cn3c4cc(Br)ccc4c(c1)c23 [Example 33, 9-bromo-2-carboxymethyloxy-5-(3-pyridylmethyl)-4H-pyrido[3,2,1-jk]carbazol-4-one] | > 30 | 0.0032 |
| CC(=O)OCc1cncc(COc2cc3c(=O)c(Cc4cccnc4)cn4c5cc(Br)ccc5c(c2)c34)c1 [Example 35, 2-(5-acetoxymethyl-3-pyridylmethyloxy)-9-bromo-5-(3-pyridylmethyl)-4H-pyrido[3,2,1-jk]carbazol-4-one] | > 30 | 0.088 |
| O=c1c(Cc2cccnc2)cn2c3cc(Br)ccc3c3cc(OCc4cncc(CO)c4)cc1c32 [Example 36, 9-bromo-2-(5-hydroxymethyl-3-pyridylmethyloxy)-5-(3-pyridylmethyl)-4H-pyrido[3,2,1-jk]carbazol-4-one] | > 30 | 0.021 |
| COc1cc2c(=O)c(Cc3ccccc3)cn3c4cc(Br)ccc4c(c1)c23 [Example 39, 5-benzyl-9-bromo-2-methoxy-4H-pyrido[3,2,1-jk]carbazol-4-one] | > 30 | 0.026 |
| O=c1c(Cc2ccccc2)cn2c3cc(Br)ccc3c3cc(O)cc1c32 [Example 40, 5-benzyl-9-bromo-2-hydroxy-4H-pyrido[3,2,1-jk]carbazol-4-one] | > 30 | 0.009 |
| O=c1c(Cc2cccnc2)cn2c3ccccc3c3cc(O)cc1c32 [Example 41, 2-hydroxy-5-(3-pyridylmethyl)-4H-pyrido[3,2,1-jk]carbazol-4-one] | 48 | 0.36 |
| CC(=O)Oc1cc2c(=O)c(Cc3cccnc3)cn3c4ccccc4c(c1)c23 [Example 42, 2-acetoxy-5-(3-pyridylmethyl)-4H-pyrido[3,2,1-jk]carbazol-4-one] | > 30 | 0.2 |
| CC(=O)Oc1ccc2c3cccc4c(=O)c(Cc5cccnc5)cn(c2c1)c43 [Example 45, 9-acetoxy-5-(3-pyridylmethyl)-4H-pyrido[3,2,1-jk]carbazol-4-one] | > 30 | 0.06 |
| O=c1ccn2c3ccc(Cl)cc3c3cc(Cl)cc1c32 [Example 48, 2,10-dichlor-4H-pyrido[3,2,1-jk]carbazol-4-one] | > 30 | – |
